Series [1] in a line: Partition coefficient, log P of the compound. Format: physicochemical. Conditions: octanol/water.

Description for physchem: Dissociation constant, pKa of the compound

Turning to `CN1CCN(C2=Nc3cc(Cl)ccc3Nc3ccccc32)CC1` [CLOZAPINE], the logP (as a rule, a log measure of how a compound divides between an organic and an aqueous phase) in series [1] (read-out: LogP) is 3.42.

In the case of `O=C1NCN(c2ccccc2)C12CCN(CCCC(c1ccc(F)cc1)c1ccc(F)cc1)CC2`, the pKa – broadly, the pH at which an ionisable group is half protonated – in “physchem” was found to be 8.66. In addition, the logP in series [1] (read-out: LogP) came to 5.83.

`CC(CN(C)C)CN1c2ccccc2Sc2ccccc21` (stereo not given) [METHYLPROMAZINE] registered a pKa in the series “physchem” of 9.11. Further, the logP in series [1] (read-out: LogP) came out at 4.81.

In turn, `CCOC(=O)c1cncn1[C@H](C)c1ccccc1` [ETOMIDATE] displayed a pKa in “physchem” of 4.5. Besides, the logP in series [1] (read-out: LogP) was found to be 3.05.

The compound `C(=C\c1ccccc1)/CN1CCN(C(c2ccccc2)c2ccccc2)CC1` [CINNARIZINE] gave a pKa in “physchem” of 7.47.

In the case of `CC(NCCC(c1ccccc1)c1ccccc1)c1ccccc1` (stereo not given) [FENDILINE], the pKa in the series “physchem” stood at 9.04. Moreover, the logP in series [1] (read-out: LogP) is 4.89.

On to `CCCCNc1ccc(C(=O)OCCN(C)C)cc1` [TETRACAINE], for which the pKa in the series “physchem” came to 8.39. In series [1] (read-out: LogP), the logP stood at 3.73.

For `N#Cc1ccc2c(c1)N(CCCN1CCC(O)CC1)c1ccccc1S2` [PERICIAZINE], the pKa in “physchem” was 8.76.

Regarding `O=c1[nH]c2ccccc2n1C1CCN(CCCC(c2ccc(F)cc2)c2ccc(F)cc2)CC1` [PIMOZIDE], the pKa in “physchem” was 8.63.

`CNC1(C)C2CCC(C2)C1(C)C` (stereo not given) [MECAMYLAMINE] showed a pKa in “physchem” of 11.2.

Regarding `CN[C@H]1CC[C@@H](c2ccc(Cl)c(Cl)c2)c2ccccc21` (single isomer, unassigned) [SERTRALINE], the pKa in the series “physchem” amounted to 9.16. Besides, the logP in series [1] (read-out: LogP) turned out to be 4.3.

As to `COc1ccc(CCN2CCC(Nc3nc4ccccc4n3Cc3ccc(F)cc3)CC2)cc1` [ASTEMIZOLE], the pKa in the series “physchem” was 8.5. Further, the logP in series [1] (read-out: LogP) was determined as 5.48.

Take `c1ccc(CN(CC2=NCCN2)c2ccccc2)cc1` [ANTAZOLINE]: in “physchem”, the pKa came to 10.1. Moreover, the logP in series [1] (read-out: LogP) amounted to 4.24.

In the series “physchem”, `COc1ccc(Cc2nccc3cc(OC)c(OC)cc23)cc1OC` [PAPAVERINE] gave a pKa of 6.25. Besides, the logP in series [1] (read-out: LogP) came to 2.93.

As to `C[C@H]1[C@H]2Cc3ccc(O)cc3[C@]1(C)CCN2CC1CC1` [CYCLAZOCINE], the pKa in “physchem” came out at 9.38. In series [1], the logP was found to be 3.31.

Consider `CCN(CC)CCNC(=O)c1cc(Br)c(N)cc1OC` [BROMOPRIDE], for which the pKa in “physchem” was found to be 9.35.

`COc1ccc2c(c1)[nH]c1c(C)nccc12` [HARMINE] showed a pKa in “physchem” of 7.5.

In the series “physchem”, `CCCCOc1cc(C(=O)NCCN(CC)CC)c2ccccc2n1` [DIBUCAINE] gave a pKa of 8.85.

In turn, `Cc1nc2sccn2c(=O)c1CCN1CCC(=C(c2ccc(F)cc2)c2ccc(F)cc2)CC1` [RITANSERIN] came in with a pKa in “physchem” of 8.2.

In turn, `CC(C)(C)c1ccc(C(O)CCCN2CCC(C(O)(c3ccccc3)c3ccccc3)CC2)cc1` (stereo not given) [TERFENADINE] yielded a pKa in “physchem” of 8.6.

For `Nc1ncn([C@@H]2O[C@H](CO)[C@@H](O)[C@H]2O)c(=O)n1` [AZACITIDINE], the logP in series [1] (read-out: LogP) was -2.17.

In the series “physchem”, `CN1CCC(OC(c2ccccc2)c2ccccc2)CC1` returned a pKa of 8.9.

Turning to `Cc1ccccc1C(OCCN(C)C)c1ccccc1` (stereo not given) [ORPHENADRINE], the pKa in “physchem” came to 8.4.

As to `O[C@@](CCN1CCCCC1)(c1ccccc1)C1CCCCC1` [TRIHEXYPHENIDYL], the pKa in the series “physchem” was found to be 8.7.

In turn, `CN(C)CCCN1c2ccccc2Sc2ccccc21` [PROMAZINE] yielded a pKa in “physchem” of 9.34.

For `CCN1CCCC1CNC(=O)c1cc(S(N)(=O)=O)ccc1OC` (stereo not given) [SULPIRIDE], the logP in series [1] (read-out: LogP) was found to be 0.42.

As for `O=c1[nH]c2ccccc2n1CCCN1CCC(n2c(=O)[nH]c3cc(Cl)ccc32)CC1` [DOMPERIDONE], the logP in series [1] (read-out: LogP) came to 4.05.

Turning to `NC(=O)C1(N2CCCCC2)CCN(CCCC(=O)c2ccc(F)cc2)CC1` [PIPAMPERONE], the pKa in “physchem” turned out to be 8.28.

Take `CN1[C@@H]2CC[C@H]1C[C@@H](OC(c1ccccc1)c1ccccc1)C2` [BENZTROPINE]: the pKa in “physchem” worked out at 10.

In turn, `CN1CCC(=C2c3ccccc3CC(=O)c3sccc32)CC1` [KETOTIFEN] gave a pKa in the series “physchem” of 8.24. The logP in series [1] (read-out: LogP) worked out at 3.56.

For the compound `CN(Cc1cc(Br)cc(Br)c1N)C1CCCCC1` [BROMHEXINE], in the series “physchem”, the pKa was determined as 8.5.

`CC12CC3CC(C)(C1)CC(N)(C3)C2` [MEMANTINE] registered a pKa in the series “physchem” of 10.4.

In the case of `Cc1ccc(C(=CCN2CCCC2)c2ccccn2)cc1` [TRIPROLIDINE], the pKa in “physchem” turned out to be 9.69. Besides, in series [1] (read-out: LogP), the logP came out at 3.47.

On to `CN(C)CCCN1c2ccccc2Sc2ccc(Cl)cc21` [CHLORPROMAZINE], for which the logP in series [1] (read-out: LogP) is 5.19.

In “physchem”, `COC(=O)[C@H]1[C@H]2C[C@@H]3c4[nH]c5cc(OC)ccc5c4CCN3C[C@H]2C[C@@H](OC(=O)c2cc(OC)c(OC)c(OC)c2)[C@@H]1OC` [RESERPINE] came in with a pKa of 6.6. In series [1] (read-out: LogP), the logP was found to be 3.72.

For `NCCc1cc(O)c(O)cc1O` [OXIDOPAMINE], in the series “physchem”, the pKa is 10.3.

The compound `CN(C)CC/C=C1/c2ccccc2Sc2ccc(Cl)cc21` [CHLORPROTHIXENE] displayed a pKa in the series “physchem” of 8.84. The logP in series [1] (read-out: LogP) was 5.18.

With `CNCCCC12CCC(c3ccccc31)c1ccccc12` [MAPROTILINE], the logP in series [1] (read-out: LogP) was found to be 4.5.

As for `COCC(=O)O[C@]1(CCN(C)CCCc2nc3ccccc3[nH]2)CCc2cc(F)ccc2[C@@H]1C(C)C` [MIBEFRADIL], the logP in series [1] came to 3.86.

In the case of `Fc1ccc(C(c2ccc(F)cc2)N2CCN(C/C=C/c3ccccc3)CC2)cc1` [FLUNARIZINE], the pKa in the series “physchem” came out at 7.71. The logP in series [1] (read-out: LogP) was found to be 6.42.

Consider `COc1cc(N)c(Cl)cc1C(=O)NC1CCN(Cc2ccccc2)CC1` [CLEBOPRIDE], for which the pKa in the series “physchem” came to 8.59. Besides, the logP in series [1] (read-out: LogP) came out at 2.72.

Consider `O=C(CCCN1CCC(O)(c2ccc(Cl)cc2)CC1)c1ccc(F)cc1` [HALOPERIDOL], for which the logP in series [1] (read-out: LogP) is 3.23.

In “physchem”, `COc1ccc(CN(CCN(C)C)c2ccccn2)cc1` [PYRILAMINE] registered a pKa of 8.92.

Take `CN(C)CC/C=C1\c2ccccc2COc2ccccc21` [DOXEPIN]: in series [1] (read-out: LogP), the logP was determined as 4.01.

With `COc1cccc([C@@]2(O)CCCC[C@@H]2CN(C)C)c1` [TRAMADOL], the pKa in “physchem” came out at 9.37.

Regarding `COc1cc(N)c(Cl)cc1C(=O)NC1CCN(CCCOc2ccc(F)cc2)CC1OC` (stereo not given) [CISAPRIDE], the pKa in “physchem” stood at 7.9.

For `Cc1c(-c2ccccc2)oc2c(C(=O)OCCN3CCCCC3)cccc2c1=O` [FLAVOXATE], in “physchem”, the pKa amounted to 7.3.

Compound `CN1CCC(=C2c3ccccc3C=Cc3ccccc32)CC1` [CYPROHEPTADINE] had a pKa in the series “physchem” of 8.87.

Regarding `COc1ccc2c(c1OC)C(=O)O[C@@H]2[C@H]1c2c(cc3c(c2OC)OCO3)CCN1C` [NOSCAPINE], the pKa in “physchem” was determined as 6.2.

The values above are taken from ChEMBL document CHEMBL1140694, “Identification of new functional inhibitors of acid sphingomyelinase using a structure-property-activity relation model” (J Med Chem, 2008).
